The values below are quoted from earlier work in patent US8580861B2, “Chemical composition for skin care formulations” (Pibed Limited, priority 2008, dated 2013).

As usually defined, the MIC is the lowest concentration that inhibits growth of the organism.

Where two headings read alike, the source gives them in different places.

Data set [1] deals with Staphylococcus aureus. The note with it: low concentrations (0.5 to 2 mM), disk diffusion. On the technique in general: Agar diffusion results depend on both activity and mobility in agar.
Data set [2] has as its system Lactobacillus fermentum. The note with it: flow cytometry.
The subject of data set [3] is Microsporum gypseum. The note with it: M. gypseum.
Data set [4] concerns Microsporum gypseum. The note with it: 10% in Vaseline petroleum jelly, topical, daily for 3 weeks; for histopathologic examination of skin tissues: versus positive control.
Data set [5] deals with Escherichia coli.

In the case of `CC(C)=CCC/C(C)=C/CC1CCCC1=O` (centres unmarked) [apritone], the “susceptibility to ciprofloxacin, clindamycin, erythromycin, gentamicin, tetracycline, and vancomycin” value (shortened to “susceptibility to ciprofloxacin”) in data set [1] is “enhanced the susceptibility of Staphylococcus aureus”. In data set [2], the “intracellular accumulation of ethidium bromide by live cells” value (shortened to “intracellular accumulation”) is recorded as “promoted the intracellular accumulation”.

On to `CC(C)=CCC[C@](C)(O)C1CC=C(C)CC1` (some centres unmarked) [bisabolol], for which the “susceptibility to ciprofloxacin” value in data set [1] is “enhanced the susceptibility of Staphylococcus aureus”. Besides, the “intracellular accumulation” value in data set [2] is given as “promoted the intracellular accumulation”.

Turning to `Clc1ccc(COC(Cn2ccnc2)c2ccc(Cl)cc2Cl)cc1` (centres unmarked) [econazole], the minimal inhibitory concentration (MIC) in data set [3] (positive control) was 4 to 16 µg/mL.

Turning to `C=CCc1ccc(O)c(OC)c1` [eugenol], the MIC in data set [3] is 0.01-0.03%. Besides, in data set [4], the skin lesion scoring result is listed as “clinically effective at improving the lesion during the first week of application”; the “histopathologic examination of skin tissues” value was “lower degree of hyperkeratosis and inflammatory cell infiltration than the positive control”.

For the molecule `CC(C)=CCCC(C)=CCCC(C)=CCO` [farnesol], in data set [5], the “sensitization to polymyxin B” value was “sensitized Escherichia coli to polymyxin B”. Moreover, in data set [2], the “intracellular accumulation” value is recorded as “promoted the intracellular accumulation”.

In the case of `C=CC(C)(O)CCC=C(C)CCC=C(C)C` (centres unmarked) [nerolidol, 3,7,11-trimethyl1,6,10-dodecatrien-3-ol], the MIC in data set [3] is given as 0.5-2%. Besides, in data set [4], the hair culture test result is on record as “improved the skin lesions infected by M. gypseum”; the skin lesion scoring result was “clinically effective at improving the lesion during the first week of application”; the “histopathologic examination of skin tissues” value was “lower degree of hyperkeratosis and inflammatory cell infiltration than the positive control”. In addition, the “susceptibility to ciprofloxacin” value in data set [1] is listed as “enhanced the susceptibility of Staphylococcus aureus”. Further, the “sensitization to polymyxin B” value in data set [5] is reported as “sensitized Escherichia coli to polymyxin B”. Besides, the “intracellular accumulation” value in data set [2] was “promoted the intracellular accumulation”.
